The values below come from publication PMC12301034, “Design and Synthesis of Boronic Chalcones with Dual Anticancer and Anti-Inflammatory Activity” (Molecules, 2025).

Entries after “also recorded” stand apart in the source; their conditions may differ.

One series is described as follows: Kinetic solubility. Type of series: physicochemical. On the procedure: To determine kinetic solubility, stock solutions of test compounds and controls [Amiodarone hydrochloride (Sigma-Aldrich, St. Louis, MO, USA), Diclofenac (Oakwood Chemical, Estill, SC, USA), Chloramphenicol (Sigma-Aldrich, St. Louis, MO, USA), and Itraconazole (Sigma-Aldrich, St. Louis, MO, USA)] were prepared at 10 mM in DMSO. A volume of 5 µL from each stock solution was transferred to designated wells of a 96-well incubation plate in duplicate. Subsequently, 195 µL of phosphate-buffered saline (PBS) at pH 7.4 or 2.0 was added to achieve a final compound concentration of 250 µM (final DMSO concentration ≤ 2.5%). The plate was sealed and subjected to shaking at 200 rpm for 24 ± 1 h at room temperature (25 °C). Following the incubation period, the plate was centrifuged at 3000 rpm for 15 min at 25 °C to remove precipitates. A 100 µL aliquot of the supernatant from each well was transferred to a corresponding well in a new 96-well plate. The samples were subsequently analyzed by an LCMS-8045 system (Shimazu, Kyoto, Japan). To quantify the solubilized fraction, a calibration curve was prepared for each test compound and control. From the 10 mM stock solution, an intermediate standard solution (0.5 mM) was prepared in a 1:1 acetonitrile:water mixture. Serial dilutions of this intermediate solution were performed to obtain final concentrations of 50, 40, 20, 2, and 1 µM. […]

A further series concerns SCC-25 cells. Briefly: Microscopy of cells after incubation with compound. Format: cell-based, human. The following applies: 24 h of incubation, 9.45 μM, SCC-25 vs NOK-si.
A further series relates to IL-6. Put plainly: Anti-inflammatory assay, IL-6 in LPS-stimulated THP-1 cells (CBA). Format: cell-based, human. The settings on record: 2 and 4 µg/mL, 24 h. As to the method:
For this assay, THP-1 (BCRJ cód. 0234) cells were cultured in Roswell Park Memorial Institute (RPMI-1640, Sigma-Aldrich; Saint Louis, MO, USA) media supplemented with 2 mM L-glutamine, 1 mM sodium pyruvate, 1.50 g/L of sodium bicarbonate, and 10% fetal bovine serum. For obtaining Macrophage-like cells, 250,000 cells per well were plated in a 24-well cell culture plate. A total of 20 ng/mL of Forbol 12-miristato-13-acetato (PMA) was added to each well, and the cells were incubated for 48 h at 37 °C with 5% CO2. After the 48 h, the wells were washed with 1X PBS, and fresh RPMI-1640 media was added. The cells were then incubated for 24 h at 37 °C and 5% CO2. For the cell’s stimulations, after the 24 h, the well was washed with PBS and fresh RPMI1640 media without fetal bovine serum added. For the positive controls of the assay, 3 wells were stimulated with LPS (1 ng/µL) diluted in the same volume and media used for the drugs stimulation. Two different concentrations (2 and 4 µg/mL) were evaluated for each molecule, which were determined to be non-cytotoxic through a cell viability assay. After a 24 h period, the supernatant was removed and used in the cytokine quantification assay. A kit for inflammatory cytokines, BD® Cytometric Bead Array CBA Human Inflammatory, was employed for this assay, containing the following human cytokines: IL-8, IL-1β, IL-6, and TNF. […]

The test system of the next series is HCT116 p53^+/+ cells. Put plainly: SRB cytotoxicity assay on HCT116 p53+/+ cells. Type of series: cell-based, human. The following applies: Homo sapiens, HCT-116, 48 h of treatment. An excerpt:
The SCC-25 (ATCC® CRL-1628™), Detroit-562 (ATCC® CCL-138™), and THP-1 (ATCC® TIB-202™) cells were purchased from Rio de Janeiro Cell Bank (Duque de Caxias, Brazil), and NOK-si was kindly provided by Prof. Carlos Rossa from the School of Dentistry—UNESP. All the cells were cultivated according to standard conditions. Human colorectal adenocarcinoma HCT116 cell lines (ATCC® CCL-247™) expressing p53 and its p53-null isogenic derivative (HCT116 p53^−/−) were provided by B. Vogelstein (The Johns Hopkins Kimmel Cancer Center, Baltimore, MD, USA).
HCT p53^+/+ and HCT p53^−/− cell lines were seeded in 96-well plates, with a concentration of 5000 cells/well, and allowed to adhere overnight. Afterwards, they were treated with serial dilutions of the compounds for an additional 48 h (compounds were prepared at 30 mM, in DMSO, and tested with a starting concentration of 50μM and 15 μM). Cells passed then through a series of essential steps (fixation with 10% trichloroacetic acid, for 1 h at 4 °C; staining with 0.4% sulforhodamine B (SRB); wash with 1% acetic acid; and solubilization with 10 mM Tris-Base); subsequently, absorbance was measured at 510 nm in a microplate reader (Biotek Instruments Inc., Synergy, MX, USA). IC50 values were determined using GraphPad Prism software, Version 7.0 (La Jolla, CA, USA).
(In general: The SRB assay estimates cell density from bound dye.)

In the case of `COc1cccc(C(=O)/C=C/c2cccc(B(O)O)c2)c1` [Compound 5, (E)-(3-(3-(3-methoxyphenyl)-3-oxoprop-1-en-1-yl)phenyl)boronic acid], in “Kinetic solubility” (kinetic solubility pH 7.4), the solubility class entry is recorded as “moderate-to-high solubility”. For the same compound, in the series “Kinetic solubility” (phosphate-buffered saline, aqueous buffer, kinetic from dmso stock, PBS pH 7.4, 24 h, 25 °C, read-out: Kinect Solubility (KS) pH = 7.4), the solubility at 24 h was above 39.6 µg/mL. Moreover, in the series on SCC-25 cells, the morphological alterations entry was “morphological alterations suggesting cell death features”. Further, the “reduction of IL-6 levels” value with IL-6 is listed as “significantly reduced; also recorded: pronounced reduction”. Also, in the series on HCT116 p53^+/+ cells, the half-inhibitory concentration (IC50) worked out at 2500 ± 170 nM.

A word on the solubility: it is the concentration that dissolves in the medium under given conditions. Usually IC50 stands for the midpoint of a concentration-inhibition curve.
